# Test system: ATDC5 cells
# Test: Chondrogenesis activity assay in ATDC5 cells (collagen type II induction, immunofluorescence)
# Format: cell-based, mouse
# Conditions: Mus musculus; for EC50: collagen type II induction in ATDC5 cells, concentration reaching 50% of maximum induction; for Emax: maximum percent induction of collagen type II relative to internal reference compound at 10 μM, ATDC5 cells
# Method in brief: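 Collagen type II was stained in fixed, permeabilized cells with an Alexa Fluor 488 secondary and measured by high-content fluorescence imaging. ATDC5 cells had 4 days at 37 °C in insulin-supplemented differentiation medium with compound, typically 40 nM–10 μM, 0.1% DMSO. DMSO wells and a 10 μM internal reference compound were used for normalization.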
Compound,EC50 [nM],Emax [%]
"CCn1c2c(-c3cccc(CN4CCOCC4)c3)cc(Cl)cc2c2ccnc(C)c21 [Example 254, 6-Chloro-9-ethyl-1-methyl-8-(3-morpholin-4-ylmethyl-phenyl)-9H-pyrido[3,4-b]indole]",> 3300,< 20
"Cc1nccc2c1[nH]c1c(-c3cccc(CN4CCOCC4)c3)cc(Cl)cc12 [Example 255, 6-Chloro-1-methyl-8-(3-morpholin-4-ylmethyl-phenyl)-9H-pyrido[3,4-b]indole]",> 3300,< 20
"CCn1c2c(-c3ccc(OCC4(C)COC4)cc3)cc(Br)cc2c2ccnc(C)c21 [Example 257, 6-Bromo-9-ethyl-1-methyl-8-[4-(3-methyl-oxetan-3-ylmethoxy)-phenyl]-9H-pyrido[3,4-b]indole]",310,> 80
"Cc1nccc2c1[nH]c1c(-c3ccc(OCCn4cccn4)cc3)cc(Br)cc12 [Example 259, 6-Bromo-1-methyl-8-[4-(2-pyrazol-1-yl-ethoxy)-phenyl]-9H-pyrido[3,4-b]indole]",430,> 80
"Cc1nccc2c1[nH]c1c(-c3cccc(OCc4ccc5ccccc5n4)c3)cc(Cl)cc12 [Example 260, 6-Chloro-1-methyl-8-[3-(quinolin-2-ylmethoxy)-phenyl]-9H-pyrido[3,4-b]indole]",> 1100,< 20
"CCn1c2c(-c3cnn(Cc4ccccn4)c3)cc(Br)cc2c2ccnc(C)c21 [Example 261, 6-Bromo-9-ethyl-1-methyl-8-(1-pyridin-2-ylmethyl-1H-pyrazol-4-yl)-9H-pyrido[3,4-b]indole]",1500,> 80
Cc1nccc2c1[nH]c1c(-c3ccc(OC(F)(F)F)cc3)cc(Cl)cc12 [Example 262],2300,> 80
"CCn1c2c(-c3cnn(CCOC(C)=O)c3)cc(Cl)cc2c2ccnc(C)c21 [Example 263, Acetic acid 2-[4-(6-chloro-9-ethyl-1-methyl-9H-pyrido[3,4-b]indol-8-yl)-pyrazol-1-yl]-ethyl ester]",550,> 80
"Cc1nccc2c1[nH]c1c(-c3ccc(OCc4ncccn4)cc3)cc(Cl)cc12 [Example 266, 6-Chloro-1-methyl-8-[4-(pyrimidin-2-ylmethoxy)-phenyl]-9H-pyrido[3,4-b]indole]",110,> 80
"Cc1nccc2c1[nH]c1c(-c3cccc(OCc4ncccn4)c3)cc(Cl)cc12 [Example 267, 6-Chloro-1-methyl-8-[3-(pyrimidin-2-ylmethoxy)-phenyl]-9H-pyrido[3,4-b]indole]",> 3300,50 to 80
"Cc1nccc2c1[nH]c1c(-c3ccc(Oc4ncc(Br)cn4)cc3)cc(Cl)cc12 [Example 268, 8-[4-(5-Bromo-pyrimidin-2-yloxy)-phenyl]-6-chloro-1-methyl-9H-pyrido[3,4-b]indole]",340,> 80
"Cc1nccc2c1[nH]c1c(-c3cccc(OCc4nccc5ccccc45)c3)cc(Cl)cc12 [Example 269, 6-Chloro-8-[3-(isoquinolin-1-ylmethoxy)-phenyl]-1-methyl-9H-pyrido[3,4-b]indole]",> 3300,20 to 50
"COc1cc(OC)nc(COc2cccc(-c3cc(Cl)cc4c3[nH]c3c(C)nccc34)c2)n1 [Example 272, 6-Chloro-8-[3-(4,6-dimethoxy-pyrimidin-2-ylmethoxy)-phenyl]-1-methyl-9H-pyrido[3,4-b]indole]",1900,> 80
"Cc1nccc2c1[nH]c1c(-c3cccc(OCc4nccs4)c3)cc(Cl)cc12 [Example 273, 6-Chloro-1-methyl-8-[3-(thiazol-2-ylmethoxy)-phenyl]-9H-pyrido[3,4-b]indole]",170,< 20
"Cc1nccc2c1[nH]c1c(-c3cccc(OCc4ncc5ccccc5n4)c3)cc(Cl)cc12 [Example 274, 6-Chloro-1-methyl-8-[3-(quinazolin-2-ylmethoxy)-phenyl]-9H-pyrido[3,4-b]indole]",> 3300,< 20
"COc1cc(OC)nc(COc2ccc(-c3cc(Cl)cc4c3[nH]c3c(C)nccc34)cc2)n1 [Example 275, 6-Chloro-8-[4-(4,6-dimethoxy-pyrimidin-2-ylmethoxy)-phenyl]-1-methyl-9H-pyrido[3,4-b]indole]",300,> 80
"CCn1c2c(-c3cnn(CC4OCCO4)c3)cc(Cl)cc2c2ccnc(C)c21 [Example 276, 6-Chloro-8-(1-[1,3]dioxolan-2-ylmethyl-1H-pyrazol-4-yl)-9-ethyl-1-methyl-9H-pyrido[3,4-b]indole]",420,> 80

Compound,EC50 [nM],Emax [%]
"Cc1nccc2c1[nH]c1c(-c3cccc(OCc4ccc(C(F)(F)F)o4)c3)cc(Cl)cc12 [Example 277, 6-Chloro-1-methyl-8-[3-(5-trifluoromethyl-furan-2-ylmethoxy)-phenyl]-9H-pyrido[3,4-b]indole]",> 3300,< 20
"Cc1nccc2c1[nH]c1c(-c3ccc(OCC4COc5ccccc5O4)cc3)cc(Cl)cc12 (centres unmarked) [Example 278, 6-Chloro-8-[4-(2,3-dihydro-benzo[1,4]dioxin-2-ylmethoxy)-phenyl]-1-methyl-9H-pyrido[3,4-b]indole]",> 3300,20 to 50
"Clc1cc(-c2ccc(Cl)nc2)c2c(c1)c1ccncc1n2CC1CCC1 [Example 279, 6-Chloro-8-(6-chloro-pyridin-3-yl)-9-cyclobutylmethyl-9H-pyrido[3,4-b]indole]",1800,20 to 50
"Clc1cc(-c2cccnc2)c2c(c1)c1ccncc1n2CC1CC1 [Example 280, 6-Chloro-9-cyclopropylmethyl-8-pyridin-3-yl-9H-pyrido[3,4-b]indole]",> 10000,< 20
"Cc1nccc2c3cc(Cl)cc(-c4cncnc4)c3n(CC3CC3)c12 [Example 281, 6-Chloro-9-cyclopropylmethyl-1-methyl-8-pyrimidin-5-yl-9H-pyrido[3,4-b]indole]",110,< 20
"Cc1nccc2c3cc(Cl)cc(-c4ccc(Cl)cc4Cl)c3n(CC3CC3)c12 [Example 282, 6-Chloro-9-cyclopropylmethyl-8-(2,4-dichloro-phenyl)-1-methyl-9H-pyrido[3,4-b]indole]",3600,< 20
"Cc1nccc2c3cc(Cl)cc(-c4cnccc4Cl)c3n(CC3CC3)c12 [Example 283, 6-Chloro-8-(4-chloro-pyridin-3-yl)-9-cyclopropylmethyl-1-methyl-9H-pyrido[3,4-b]indole]",410,< 20
"Cc1nccc2c3cc(Cl)cc(-c4cccnc4Cl)c3n(CC3CC3)c12 [Example 284, 6-Chloro-8-(2-chloro-pyridin-3-yl)-9-cyclopropylmethyl-1-methyl-9H-pyrido[3,4-b]indole]",4200,< 20
"Cc1nccc2c3cc(Cl)cc(-c4ccc(Cl)nc4Cl)c3n(CC3CC3)c12 [Example 285, 6-Chloro-9-cyclopropylmethyl-8-(2,6-dichloro-pyridin-3-yl)-1-methyl-9H-pyrido[3,4-b]indole]",6100,20 to 50
"Cc1nccc2c3cc(Cl)cc(-c4cnc(N(C)C)nc4)c3n(CC3CC3)c12 [Example 286, [5-(6-Chloro-9-cyclopropylmethyl-1-methyl-9H-pyrido[3,4-b]indol-8-yl)-pyrimidin-2-yl]-dimethyl-amine]",41,< 20
"Cn1cc(-c2cc(Cl)cc3c4ccncc4n(CC4CC4)c23)cn1 [Example 287, 6-Chloro-9-cyclopropylmethyl-8-(1-methyl-1H-pyrazol-4-yl)-9H-pyrido[3,4-b]indole]",230,50 to 80
"COc1ccc(-c2cc(Cl)cc3c4ccncc4n(C4CC4)c23)cc1 [Example 289, 6-Chloro-9-cyclopropyl-8-(4-methoxy-phenyl)-9H-pyrido[3,4-b]indole]",750,> 80
"Cc1nccc2c3cc(Cl)cc(-c4cnn(Cc5cccnc5)c4)c3n(CC3CC3)c12 [Example 290, 6-Chloro-9-cyclopropylmethyl-1-methyl-8-(1-pyridin-3-ylmethyl-1H-pyrazol-4-yl)-9H-pyrido[3,4-b]indole]",> 10000,20 to 50
"Clc1ccc(-c2cc(Cl)cc3c4ccncc4n(CC4CC4)c23)cc1 [Example 291, 6-Chloro-8-(4-chloro-phenyl)-9-cyclopropylmethyl-9H-pyrido[3,4-b]indole]",1700,50 to 80
"Cc1nccc2c3cc(Cl)cc(-c4ccccc4C(N)=O)c3n(CC3CC3)c12 [Example 292, 2-(6-Chloro-9-cyclopropylmethyl-1-methyl-9H-pyrido[3,4-b]indol-8-yl)-benzamide]",> 6600,< 20
"COc1ccc(-c2cc(Cl)cc3c4ccnc(C)c4n(CC4CC4)c23)cc1 [Example 293, 6-Chloro-9-cyclopropylmethyl-8-(4-methoxy-phenyl)-1-methyl-9H-pyrido[3,4-b]indole]",4500,50 to 80
"CN(C)c1ccc(-c2cc(Cl)cc3c4ccncc4n(CC4CC4)c23)c(Cl)n1 [Example 294, [6-Chloro-5-(6-chloro-9-cyclopropylmethyl-9H-pyrido[3,4-b]indol-8-yl)-pyridin-2-yl]-dimethyl-amine]",1200,> 80
